Data as given in patent US4100346A, “Certain 7(o-amino-methyl- or methylaminomethylphenyl- or cyclohexadienyl- or thienylacetamide)-3[1-carboxymethyl-(or ethyl- or propyl-)-tetrazol-5-ylthiomethyl]-3-cephem-4-carboxylic acids” (Bristol-Myers Company, priority 1976, dated 1978).
Values after ≈ are worked out from the molar mass of the structure shown. Where two headings read alike, the source gives them in different places.

What was measured:
Alcaligenes sp. = test: Growth inhibitory activity, antibiotic dilution technique
Enterobacter aerogenes = test: Minimum growth inhibitory and bactericidal concentrations for Enterobacteriaceae; assay type: cell-based; details: Klebsiella aerogenes, inoculum 10^4 cells; for MBC: read-out: MBC, minimum bactericidal concentration; for MIC: read-out: MIC, Minimum growth inhibitory concentration
From the text: (§1) Miscellaneous. Methods for determining bactericidal activity and susceptibility to cell-free β-lactamase were those previously used; Leitner et al., BL-S640, A Cephalosporin With a Broad Spectrum of Antibacterial Activity: Properties in vitro, Antimicrob. Agents Chemother. 7:298-305 (1975).
(§2) *MIC, Minimum growth inhibitory concentration; MBC, minimum bactericidal
(§3) concentration; expressed as micrograms per milliliter. The inoculum was […]

Proteus mirabilis [1] = test: as above; assay type: cell-based; details: for MBC: read-out: MBC, minimum bactericidal concentration; for MIC: read-out: MIC, Minimum growth inhibitory concentration
From the text: as §1, §2, §3

Klebsiella pneumoniae = test: as above; assay type: cell-based; details: for MBC: read-out: MBC, minimum bactericidal concentration; for MIC: read-out: MIC, Minimum growth inhibitory concentration
From the text: as §1, §2, §3

Proteus vulgaris [2] = test: as above; assay type: cell-based; details: Proteus vulgaris, inoculum 10^4 cells; for MBC: read-out: MBC, minimum bactericidal concentration; for MIC: read-out: MIC, Minimum growth inhibitory concentration
From the text: as §1, §2, §3

Proteus rettgeri = test: as above; assay type: cell-based; details: Providencia rettgeri, inoculum 10^4 cells; for MBC: read-out: MBC, minimum bactericidal concentration; for MIC: read-out: MIC, Minimum growth inhibitory concentration
From the text: as §1, §2, §3

Escherichia coli = test: as above; assay type: cell-based; details: for MBC: read-out: MBC, minimum bactericidal concentration; for MIC: read-out: MIC, Minimum growth inhibitory concentration
From the text: as §1, §2, §3

Enterobacter cloacae = test: as above; assay type: cell-based; details: for MBC: read-out: MBC, minimum bactericidal concentration; for MIC: read-out: MIC, Minimum growth inhibitory concentration
From the text: as §1, §2, §3

in vivo = details: mouse, im
Serratia marcescens = test: Growth inhibitory activity, antibiotic dilution technique; details: read-out: Minimum inhibitory concentration
Proteus vulgaris [3] = test: Effect of inoculum size on susceptibility of Enterobacteriaceae
Pasteurella multocida = test: Growth inhibitory activity, antibiotic dilution technique; details: read-out: Minimum inhibitory concentration
Erwinia sp. = test: as above; details: read-out: Minimum inhibitory concentration
Proteus mirabilis [4] = test: Effect of inoculum size on susceptibility of Enterobacteriaceae
[5] = Enterobacter aerogenes strain 1
[6] = Enterobacter aerogenes strain 2
[7] = Enterobacter aerogenes strain 3
[8] = Proteus mirabilis strain 1, inoculum 10^4 cells
[9] = Proteus mirabilis strain 2, inoculum 10^4 cells
[10] = Proteus mirabilis strain 3, inoculum 10^4 cells
[11] = Proteus mirabilis strain 4, inoculum 10^4 cells
[12] = Proteus mirabilis strain 5, inoculum 10^4 cells
[13] = Klebsiella pneumoniae strain 1, inoculum 10^4 cells
[14] = Klebsiella pneumoniae strain 2, inoculum 10^4 cells
[15] = Klebsiella pneumoniae strain 3, inoculum 10^4 cells
[16] = Klebsiella pneumoniae strain 4, inoculum 10^4 cells
[17] = Klebsiella pneumoniae strain 5, inoculum 10^4 cells
[18] = Klebsiella pneumoniae strain 6, inoculum 10^4 cells
[19] = Escherichia coli strain 1, inoculum 10^4 cells
[20] = Escherichia coli strain 2, inoculum 10^4 cells
[21] = Escherichia coli strain 3, inoculum 10^4 cells
[22] = Escherichia coli strain 4, inoculum 10^4 cells
[23] = Escherichia coli strain 5, inoculum 10^4 cells
[24] = Escherichia coli strain 6, inoculum 10^4 cells
[25] = Enterobacter cloacae strain 3, inoculum 10^4 cells
[26] = Enterobacter cloacae strain 4, inoculum 10^4 cells
[27] = Enterobacter cloacae strain 8, inoculum 10^4 cells

In the case of `CC(=O)OCC1=C(C(=O)O)N2C(=O)[C@@H](NC(=O)Cc3cccs3)[C@H]2SC1` [Cephalothin], the MIC (Alcaligenes sp.; read-out: Minimum inhibitory concentration, Alcaligenes sp., 2 strains, geometric mean when applicable) is reported as greater than 125 µg/mL, the MIC (Alcaligenes sp.; read-out: Minimum inhibitory concentration, Alcaligenes sp., 4 strains, geometric mean when applicable) is reported as greater than 105 µg/mL and the MIC (Alcaligenes sp.; read-out: Minimum inhibitory concentration, Alcaligenes sp., 5 strains, geometric mean when applicable) is reported as 1.3 µg/mL (≈ 3.28 µM). It also gave an MBC (Enterobacter aerogenes; [5]) of 250 µg/mL (≈ 631 µM), an MIC (Enterobacter aerogenes; [5]) of 125 µg/mL (≈ 315 µM) and an MBC (Enterobacter aerogenes; [6]) greater than 250 µg/mL. The MIC (Enterobacter aerogenes; [6]) was 125 µg/mL (≈ 315 µM), the MBC (Enterobacter aerogenes; [7]) was greater than 250 µg/mL and the MIC (Enterobacter aerogenes; [7]) was 250 µg/mL (≈ 631 µM). The MBC (Proteus mirabilis [1]; [8]) was 32 µg/mL (≈ 80.7 µM), the MIC (Proteus mirabilis [1]; [8]) was 8 µg/mL (≈ 20.2 µM) and the MBC (Proteus mirabilis [1]; [9]) was 32 µg/mL (≈ 80.7 µM). It also gave an MIC (Proteus mirabilis [1]; [9]) of 8 µg/mL (≈ 20.2 µM), an MBC (Proteus mirabilis [1]; [10]) of 8 µg/mL (≈ 20.2 µM) and an MIC (Proteus mirabilis [1]; [10]) of 8 µg/mL (≈ 20.2 µM). It also gave an MBC (Proteus mirabilis [1]; [11]) of 8 µg/mL (≈ 20.2 µM), an MIC (Proteus mirabilis [1]; [11]) of 4 µg/mL (≈ 10.1 µM) and an MBC (Proteus mirabilis [1]; [12]) of 16 µg/mL (≈ 40.4 µM). The MIC (Proteus mirabilis [1]; [12]) was 8 µg/mL (≈ 20.2 µM), the MBC (Klebsiella pneumoniae; [13]) was 2 µg/mL (≈ 5.04 µM) and the MIC (Klebsiella pneumoniae; [13]) was 2 µg/mL (≈ 5.04 µM). It also gave an MBC (Klebsiella pneumoniae; [14]) of 8 µg/mL (≈ 20.2 µM), an MIC (Klebsiella pneumoniae; [14]) of 4 µg/mL (≈ 10.1 µM) and an MBC (Klebsiella pneumoniae; [15]) of 4 µg/mL (≈ 10.1 µM). For the same compound, the MIC (Klebsiella pneumoniae; [15]) was 2 µg/mL (≈ 5.04 µM), the MBC (Klebsiella pneumoniae; [16]) was 4 µg/mL (≈ 10.1 µM) and the MIC (Klebsiella pneumoniae; [16]) was 4 µg/mL (≈ 10.1 µM). The MBC (Klebsiella pneumoniae; [17]) was 8 µg/mL (≈ 20.2 µM), the MIC (Klebsiella pneumoniae; [17]) was 8 µg/mL (≈ 20.2 µM) and the MBC (Klebsiella pneumoniae; [18]) was 2 µg/mL (≈ 5.04 µM). The MIC (Klebsiella pneumoniae; [18]) was 2 µg/mL (≈ 5.04 µM), the MBC (Proteus vulgaris [2]; Proteus vulgaris strain 1) was 2 µg/mL (≈ 5.04 µM) and the MIC (Proteus vulgaris [2]; Proteus vulgaris strain 1) was 1 µg/mL (≈ 2.52 µM). The MBC (Proteus vulgaris [2]; Proteus vulgaris strain 2) was 16 µg/mL (≈ 40.4 µM), the MIC (Proteus vulgaris [2]; Proteus vulgaris strain 2) was 8 µg/mL (≈ 20.2 µM) and the MBC (Proteus vulgaris [2]; Proteus vulgaris strain 4) was 16 µg/mL (≈ 40.4 µM). It also gave an MIC (Proteus vulgaris [2]; Proteus vulgaris strain 4) of 8 µg/mL (≈ 20.2 µM), an MBC (Proteus rettgeri; Proteus rettgeri strain 2) of 2 µg/mL (≈ 5.04 µM) and an MIC (Proteus rettgeri; Proteus rettgeri strain 2) of 1 µg/mL (≈ 2.52 µM). It also gave an MBC (Proteus rettgeri; Proteus rettgeri strain 3) of 250 µg/mL (≈ 631 µM), an MIC (Proteus rettgeri; Proteus rettgeri strain 3) of 125 µg/mL (≈ 315 µM) and an MBC (Escherichia coli; [19]) of 16 µg/mL (≈ 40.4 µM). It also gave an MIC (Escherichia coli; [19]) of 8 µg/mL (≈ 20.2 µM), an MBC (Escherichia coli; [20]) of 32 µg/mL (≈ 80.7 µM) and an MIC (Escherichia coli; [20]) of 32 µg/mL (≈ 80.7 µM). It also gave an MBC (Escherichia coli; [21]) of 8 µg/mL (≈ 20.2 µM), an MIC (Escherichia coli; [21]) of 4 µg/mL (≈ 10.1 µM) and an MBC (Escherichia coli; [22]) of 16 µg/mL (≈ 40.4 µM). For the same compound, the MIC (Escherichia coli; [22]) was 8 µg/mL (≈ 20.2 µM), the MBC (Escherichia coli; [23]) was 16 µg/mL (≈ 40.4 µM) and the MIC (Escherichia coli; [23]) was 16 µg/mL (≈ 40.4 µM). The MBC (Escherichia coli; [24]) was 16 µg/mL (≈ 40.4 µM), the MIC (Escherichia coli; [24]) was 16 µg/mL (≈ 40.4 µM) and the MBC (Enterobacter cloacae; [25]) was 63 µg/mL (≈ 159 µM). For the same compound, the MIC (Enterobacter cloacae; [25]) was 32 µg/mL (≈ 80.7 µM), the MBC (Enterobacter cloacae; [26]) was greater than 250 µg/mL and the MIC (Enterobacter cloacae; [26]) was 250 µg/mL (≈ 631 µM). It also gave an MBC (Enterobacter cloacae; [27]) greater than 250 µg/mL, an MIC (Enterobacter cloacae; [27]) greater than 250 µg/mL and a half-life (in vivo) of 11 min. The Cmax (in vivo; 20 mg/kg) was 17000 ng/mL, the MIC (Serratia marcescens) was greater than 125 µg/mL and the MIC (Proteus vulgaris [3]; read-out: Minimum Inhibitory Concentration, Proteus vulgaris strain 1, A, Inoculum of 10^2 organisms) was 1 µg/mL (≈ 2.52 µM). It also gave an MIC (Proteus vulgaris [3]; read-out: Minimum Inhibitory Concentration, Proteus vulgaris strain 1, B, Inoculum of 10^6 organisms) of 4 µg/mL (≈ 10.1 µM), an MIC (Proteus vulgaris [3]; read-out: Minimum Inhibitory Concentration, Proteus vulgaris strain 2, A, Inoculum of 10^2 organisms) of 8 µg/mL (≈ 20.2 µM) and an MIC (Proteus vulgaris [3]; read-out: Minimum Inhibitory Concentration, Proteus vulgaris strain 2, B, Inoculum of 10^6 organisms) of 125 µg/mL (≈ 315 µM). It also gave an MIC (Proteus vulgaris [3]; read-out: Minimum Inhibitory Concentration, Proteus vulgaris strain 4, A, Inoculum of 10^2 organisms) of 16 µg/mL (≈ 40.4 µM), an MIC (Proteus vulgaris [3]; read-out: Minimum Inhibitory Concentration, Proteus vulgaris strain 4, B, Inoculum of 10^6 organisms) of 16 µg/mL (≈ 40.4 µM) and an MIC (Pasteurella multocida) of 0.09 µg/mL (≈ 0.227 µM). The MIC (Erwinia sp.) was 5.3 µg/mL (≈ 13.4 µM), the MIC (Proteus mirabilis [4]; read-out: Minimum Inhibitory Concentration, Proteus mirabilis strain 1, A, Inoculum of 10^2 organisms) was 8 µg/mL (≈ 20.2 µM) and the MIC (Proteus mirabilis [4]; read-out: Minimum Inhibitory Concentration, Proteus mirabilis strain 1, B, Inoculum of 10^6 organisms) was 16 µg/mL (≈ 40.4 µM). It also gave an MIC (Proteus mirabilis [4]; read-out: Minimum Inhibitory Concentration, Proteus mirabilis strain 2, A, Inoculum of 10^2 organisms) of 4 µg/mL (≈ 10.1 µM), an MIC (Proteus mirabilis [4]; read-out: Minimum Inhibitory Concentration, Proteus mirabilis strain 2, B, Inoculum of 10^6 organisms) of 32 µg/mL (≈ 80.7 µM) and an MIC (Proteus mirabilis [4]; read-out: Minimum Inhibitory Concentration, Proteus mirabilis strain 3, A, Inoculum of 10^2 organisms) of 16 µg/mL (≈ 40.4 µM). The MIC (Proteus mirabilis [4]; read-out: Minimum Inhibitory Concentration, Proteus mirabilis strain 3, B, Inoculum of 10^6 organisms) was 32 µg/mL (≈ 80.7 µM), the MIC (Proteus mirabilis [4]; read-out: Minimum Inhibitory Concentration, Proteus mirabilis strain 4, A, Inoculum of 10^2 organisms) was 8 µg/mL (≈ 20.2 µM) and the MIC (Proteus mirabilis [4]; read-out: Minimum Inhibitory Concentration, Proteus mirabilis strain 4, B, Inoculum of 10^6 organisms) was 32 µg/mL (≈ 80.7 µM). For the same compound, the MIC (Proteus mirabilis [4]; read-out: Minimum Inhibitory Concentration, Proteus mirabilis strain 5, A, Inoculum of 10^2 organisms) was 8 µg/mL (≈ 20.2 µM) and the MIC (Proteus mirabilis [4]; read-out: Minimum Inhibitory Concentration, Proteus mirabilis strain 5, B, Inoculum of 10^6 organisms) was 32 µg/mL (≈ 80.7 µM).
